According to PMC10491607, “Structural insight into the substrate recognition and transport mechanism of amino acid transporter complex ACE2-B^0AT1 and ACE2-SIT1” (Cell Discovery, 2023):

Assays:
[1] = molecular target: T1, ACE2-B^0AT1 complex (Homo sapiens, UniProt Q695T7); test: cryo-EM structure of the complex, […] A; type: binding; conditions: central substrate site between TM1 and TM6
T1 construct: gene SLC6A19; purified complex for cryo-EM; with Angiotensin-converting enzyme 2

[2] = molecular target: T1, ACE2-B^0AT1 complex; test: cryo-EM structure of the complex, […] A; type: binding; conditions: central substrate site between TM1 and TM6; remark: listed apart in the source
[3] = molecular target: T2, ACE2-SIT1 complex (Homo sapiens, UniProt Q9NP91, Q247A); test: Pro-induced transport current in HEK293T cells co-expressing SIT1 and ACE2; type: cell-based
T2 construct: gene SLC6A20; co-expressed in HEK293T cells for currents; purified complex for cryo-EM (two protomers, each ACE2 plus SIT1); with Angiotensin-converting enzyme 2
T2 sequence (Q9NP91 whole entry Q247A): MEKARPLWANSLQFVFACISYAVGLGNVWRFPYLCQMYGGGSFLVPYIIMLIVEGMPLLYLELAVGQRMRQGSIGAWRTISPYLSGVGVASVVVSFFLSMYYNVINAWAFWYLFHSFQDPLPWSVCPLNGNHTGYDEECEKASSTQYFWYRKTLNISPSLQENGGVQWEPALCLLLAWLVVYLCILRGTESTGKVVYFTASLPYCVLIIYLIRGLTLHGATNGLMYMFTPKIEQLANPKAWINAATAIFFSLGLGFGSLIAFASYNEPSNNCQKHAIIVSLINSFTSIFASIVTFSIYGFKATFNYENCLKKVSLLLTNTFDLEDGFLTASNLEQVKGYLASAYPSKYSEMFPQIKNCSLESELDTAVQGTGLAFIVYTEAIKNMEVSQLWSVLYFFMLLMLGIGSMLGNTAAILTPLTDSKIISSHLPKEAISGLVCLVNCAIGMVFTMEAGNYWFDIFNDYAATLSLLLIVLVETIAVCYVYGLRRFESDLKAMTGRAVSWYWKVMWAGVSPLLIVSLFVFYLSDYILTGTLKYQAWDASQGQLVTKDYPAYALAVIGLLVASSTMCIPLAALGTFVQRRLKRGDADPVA
T2 sequence (Q9BYF1 18-805 partner): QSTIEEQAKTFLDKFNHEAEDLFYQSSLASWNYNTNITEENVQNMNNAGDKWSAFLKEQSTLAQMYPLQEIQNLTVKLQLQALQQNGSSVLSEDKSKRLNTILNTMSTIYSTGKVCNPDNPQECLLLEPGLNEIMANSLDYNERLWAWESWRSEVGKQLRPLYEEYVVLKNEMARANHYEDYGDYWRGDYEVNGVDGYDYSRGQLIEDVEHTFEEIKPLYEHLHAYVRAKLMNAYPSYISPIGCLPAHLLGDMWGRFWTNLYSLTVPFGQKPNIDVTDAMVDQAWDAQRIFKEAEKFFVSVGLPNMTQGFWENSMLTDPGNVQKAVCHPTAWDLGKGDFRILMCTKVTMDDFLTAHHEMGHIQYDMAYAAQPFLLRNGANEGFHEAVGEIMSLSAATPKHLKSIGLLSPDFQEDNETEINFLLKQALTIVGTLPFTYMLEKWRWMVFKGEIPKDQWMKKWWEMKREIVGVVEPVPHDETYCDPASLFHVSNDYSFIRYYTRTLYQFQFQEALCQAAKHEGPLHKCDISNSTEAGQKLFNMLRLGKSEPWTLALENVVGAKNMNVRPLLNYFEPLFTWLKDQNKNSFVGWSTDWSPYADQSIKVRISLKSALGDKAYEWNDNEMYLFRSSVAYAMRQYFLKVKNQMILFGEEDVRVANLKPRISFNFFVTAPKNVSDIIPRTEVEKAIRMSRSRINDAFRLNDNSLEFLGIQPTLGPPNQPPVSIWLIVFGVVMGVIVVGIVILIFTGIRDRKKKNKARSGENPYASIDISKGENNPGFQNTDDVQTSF

[4] = molecular target: T3, ACE2-SIT1 complex (Homo sapiens, UniProt Q9NP91); test: as above; type: cell-based
T3 construct: gene SLC6A20; co-expressed in HEK293T cells for currents; purified complex for cryo-EM (two protomers, each ACE2 plus SIT1); with Angiotensin-converting enzyme 2
T3 sequence (Q9NP91 whole entry): as the sequence (Q9NP91 whole entry Q247A) above, with A247Q counted along it
T3 sequence (Q9BYF1 18-805 partner): as the sequence (Q9BYF1 18-805 partner) above

T1 sequence (Q695T7 whole entry): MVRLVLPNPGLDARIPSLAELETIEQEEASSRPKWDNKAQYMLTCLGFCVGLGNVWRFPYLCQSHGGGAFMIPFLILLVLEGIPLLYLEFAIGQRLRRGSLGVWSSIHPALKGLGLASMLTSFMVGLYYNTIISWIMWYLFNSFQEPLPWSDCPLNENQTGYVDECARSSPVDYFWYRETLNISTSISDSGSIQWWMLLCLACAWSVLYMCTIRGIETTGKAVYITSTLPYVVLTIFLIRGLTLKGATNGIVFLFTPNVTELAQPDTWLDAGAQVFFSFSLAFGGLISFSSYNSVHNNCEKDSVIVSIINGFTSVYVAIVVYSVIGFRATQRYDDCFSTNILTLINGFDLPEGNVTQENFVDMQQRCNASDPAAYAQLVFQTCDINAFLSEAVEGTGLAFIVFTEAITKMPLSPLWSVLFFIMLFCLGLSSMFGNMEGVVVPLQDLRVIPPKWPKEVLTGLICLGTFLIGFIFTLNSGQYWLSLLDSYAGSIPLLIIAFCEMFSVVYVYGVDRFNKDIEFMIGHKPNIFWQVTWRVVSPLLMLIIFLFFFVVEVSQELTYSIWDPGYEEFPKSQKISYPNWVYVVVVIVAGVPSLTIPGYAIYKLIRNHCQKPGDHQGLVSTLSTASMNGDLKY
T1 sequence (Q9BYF1 18-805 partner): as the sequence (Q9BYF1 18-805 partner) above

## NC(=O)CC[C@H](N)C(=O)O [Gln]
[1]
  cryo-EM structure of the complex, 3.2 A: ACE2-B^0AT1 complex bound to its native substrates Gln and Met are determined

## CSCC[C@H](N)C(=O)O [Met]
[2]
  cryo-EM structure of the complex, 3.1 A: ACE2-B^0AT1 complex bound to its native substrates Gln and Met are determined

## O=C(O)[C@@H]1CCCN1 [Pro]
[3]
  EC50: ~70 µM
[4]
  EC50: ~2510 µM
